# Assay results reported in patent publication US20240407365A1, “Method for Treating Technical Products” (THOR GMBH, priority 2021, published 2024).
# Experiment: amount of CMIT remaining in water-based dispersion paint after storage, HPLC
# Format: physicochemical
# Conditions: paint pH 8.3
# Description: The amounts of 5-chloro-2-methyl-4-isothiazolinone and zinc oxide specified in Table 1 were added to and homogeneously incorporated in aliquots of a commercially available, preservative-free, water-based matt interior dispersion paint (pH: 8.3; binder: ethylene vinyl acetate; pigment volume concentration (PVC): 77%). After 30 to 45 minutes, the sodium pyrithione was then added. The controls used were samples containing chloro-2-methyl-4-isothiazolinone and sodium pyrithione without zinc oxide and samples containing chloro-2-methyl-4-isothiazolinone only. The samples were stored at 21° C. and, after the time intervals specified in Table 1 (4 hours, 24 hours, 72 hours, 168 hours and 336 hours), the amount of chloro-2-methyl-4-isothiazolinone remaining in the paint was determined with the aid of HPLC analyses.
# [1] = NaPy 0 ppm, CMIT 25 ppm, ZnO 0 ppm
# [2] = NaPy 0 ppm, CMIT 50 ppm, ZnO 0 ppm
# [3] = NaPy 0 ppm, CMIT 100 ppm, ZnO 0 ppm
# [4] = NaPy 130 ppm, CMIT 25 ppm, ZnO 0 ppm
# [5] = NaPy 130 ppm, CMIT 25 ppm, ZnO 75 ppm
# [6] = NaPy 130 ppm, CMIT 25 ppm, ZnO 150 ppm
# [7] = NaPy 130 ppm, CMIT 25 ppm, ZnO 225 ppm
# [8] = NaPy 130 ppm, CMIT 25 ppm, ZnO 300 ppm
# [9] = NaPy 130 ppm, CMIT 25 ppm, ZnO 375 ppm
# [10] = NaPy 130 ppm, CMIT 25 ppm, ZnO 450 ppm
# [11] = NaPy 130 ppm, CMIT 25 ppm, ZnO 525 ppm
# [12] = NaPy 130 ppm, CMIT 50 ppm, ZnO 0 ppm
# [13] = NaPy 130 ppm, CMIT 50 ppm, ZnO 75 ppm
# [14] = NaPy 130 ppm, CMIT 50 ppm, ZnO 150 ppm
# [15] = NaPy 130 ppm, CMIT 50 ppm, ZnO 225 ppm
# [16] = NaPy 130 ppm, CMIT 50 ppm, ZnO 300 ppm
# [17] = NaPy 130 ppm, CMIT 50 ppm, ZnO 375 ppm
# [18] = NaPy 130 ppm, CMIT 50 ppm, ZnO 450 ppm
# [19] = NaPy 130 ppm, CMIT 50 ppm, ZnO 525 ppm
# [20] = NaPy 130 ppm, CMIT 100 ppm, ZnO 0 ppm
# [21] = NaPy 130 ppm, CMIT 100 ppm, ZnO 75 ppm
# [22] = NaPy 130 ppm, CMIT 100 ppm, ZnO 150 ppm
# [23] = NaPy 130 ppm, CMIT 100 ppm, ZnO 225 ppm
# [24] = NaPy 130 ppm, CMIT 100 ppm, ZnO 300 ppm
# [25] = NaPy 130 ppm, CMIT 100 ppm, ZnO 375 ppm
# [26] = NaPy 130 ppm, CMIT 100 ppm, ZnO 450 ppm
# [27] = NaPy 130 ppm, CMIT 100 ppm, ZnO 525 ppm
smiles,measurement,setting,value
"Cn1sc(Cl)cc1=O [CIMT, 5-chloro-2-methyl-4-isothiazolinone]",CIMT [ppm] after storage at 21° C. 4 [h],[1],25 ppm
same,CIMT [ppm] after storage at 21° C. 24 h,[1],25 ppm
same,CIMT [ppm] after storage at 21° C. 72 h,[1],24 ppm
same,CIMT [ppm] after storage at 21° C. 168 h,[1],24 ppm
same,CIMT [ppm] after storage at 21° C. 336 h,[1],22 ppm
same,CIMT [ppm] after storage at 21° C. 4 [h],[2],50 ppm
same,CIMT [ppm] after storage at 21° C. 24 h,[2],50 ppm
same,CIMT [ppm] after storage at 21° C. 72 h,[2],49 ppm
same,CIMT [ppm] after storage at 21° C. 168 h,[2],47 ppm
same,CIMT [ppm] after storage at 21° C. 336 h,[2],47 ppm
same,CIMT [ppm] after storage at 21° C. 4 [h],[3],101 ppm
same,CIMT [ppm] after storage at 21° C. 24 h,[3],100 ppm
same,CIMT [ppm] after storage at 21° C. 72 h,[3],101 ppm
same,CIMT [ppm] after storage at 21° C. 168 h,[3],99 ppm
same,CIMT [ppm] after storage at 21° C. 336 h,[3],95 ppm
same,CIMT [ppm] after storage at 21° C. 4 [h],[4],<LOQ (below the limit of determination (<0.5 ppm CMIT))
same,CIMT [ppm] after storage at 21° C. 24 h,[4],<LOQ (below the limit of determination (<0.5 ppm CMIT))
same,CIMT [ppm] after storage at 21° C. 72 h,[4],<LOQ (below the limit of determination (<0.5 ppm CMIT))
same,CIMT [ppm] after storage at 21° C. 168 h,[4],<LOQ (below the limit of determination (<0.5 ppm CMIT))
same,CIMT [ppm] after storage at 21° C. 336 h,[4],<LOQ (below the limit of determination (<0.5 ppm CMIT))
same,CIMT [ppm] after storage at 21° C. 4 [h],[5],13 ppm
same,CIMT [ppm] after storage at 21° C. 24 h,[5],4 ppm
same,CIMT [ppm] after storage at 21° C. 72 h,[5],1 ppm
same,CIMT [ppm] after storage at 21° C. 168 h,[5],<LOQ (below the limit of determination (<0.5 ppm CMIT))
same,CIMT [ppm] after storage at 21° C. 336 h,[5],<LOQ (below the limit of determination (<0.5 ppm CMIT))
same,CIMT [ppm] after storage at 21° C. 4 [h],[6],19 ppm
same,CIMT [ppm] after storage at 21° C. 24 h,[6],11 ppm
same,CIMT [ppm] after storage at 21° C. 72 h,[6],6 ppm
same,CIMT [ppm] after storage at 21° C. 168 h,[6],2 ppm
same,CIMT [ppm] after storage at 21° C. 336 h,[6],<LOQ (below the limit of determination (<0.5 ppm CMIT))
same,CIMT [ppm] after storage at 21° C. 4 [h],[7],23 ppm
same,CIMT [ppm] after storage at 21° C. 24 h,[7],17 ppm
same,CIMT [ppm] after storage at 21° C. 72 h,[7],11 ppm
same,CIMT [ppm] after storage at 21° C. 168 h,[7],7 ppm
same,CIMT [ppm] after storage at 21° C. 336 h,[7],2 ppm
same,CIMT [ppm] after storage at 21° C. 4 [h],[8],24 ppm
same,CIMT [ppm] after storage at 21° C. 24 h,[8],21 ppm
same,CIMT [ppm] after storage at 21° C. 72 h,[8],14 ppm
same,CIMT [ppm] after storage at 21° C. 168 h,[8],12 ppm
same,CIMT [ppm] after storage at 21° C. 336 h,[8],6 ppm
same,CIMT [ppm] after storage at 21° C. 4 [h],[9],25 ppm
same,CIMT [ppm] after storage at 21° C. 24 h,[9],22 ppm
same,CIMT [ppm] after storage at 21° C. 72 h,[9],20 ppm
same,CIMT [ppm] after storage at 21° C. 168 h,[9],15 ppm
same,CIMT [ppm] after storage at 21° C. 336 h,[9],10 ppm
same,CIMT [ppm] after storage at 21° C. 4 [h],[10],26 ppm
same,CIMT [ppm] after storage at 21° C. 24 h,[10],22 ppm
same,CIMT [ppm] after storage at 21° C. 72 h,[10],22 ppm
same,CIMT [ppm] after storage at 21° C. 168 h,[10],19 ppm
same,CIMT [ppm] after storage at 21° C. 336 h,[10],12 ppm
same,CIMT [ppm] after storage at 21° C. 4 [h],[11],24 ppm
same,CIMT [ppm] after storage at 21° C. 24 h,[11],21 ppm
same,CIMT [ppm] after storage at 21° C. 72 h,[11],21 ppm
same,CIMT [ppm] after storage at 21° C. 168 h,[11],18 ppm
same,CIMT [ppm] after storage at 21° C. 336 h,[11],14 ppm
same,CIMT [ppm] after storage at 21° C. 4 [h],[12],3 ppm
same,CIMT [ppm] after storage at 21° C. 24 h,[12],<LOQ (below the limit of determination (<0.5 ppm CMIT))
same,CIMT [ppm] after storage at 21° C. 72 h,[12],<LOQ (below the limit of determination (<0.5 ppm CMIT))
same,CIMT [ppm] after storage at 21° C. 168 h,[12],<LOQ (below the limit of determination (<0.5 ppm CMIT))
same,CIMT [ppm] after storage at 21° C. 336 h,[12],<LOQ (below the limit of determination (<0.5 ppm CMIT))
same,CIMT [ppm] after storage at 21° C. 4 [h],[13],21 ppm
same,CIMT [ppm] after storage at 21° C. 24 h,[13],9 ppm
same,CIMT [ppm] after storage at 21° C. 72 h,[13],2 ppm
same,CIMT [ppm] after storage at 21° C. 168 h,[13],<LOQ (below the limit of determination (<0.5 ppm CMIT))
same,CIMT [ppm] after storage at 21° C. 336 h,[13],<LOQ (below the limit of determination (<0.5 ppm CMIT))
same,CIMT [ppm] after storage at 21° C. 4 [h],[14],31 ppm
same,CIMT [ppm] after storage at 21° C. 24 h,[14],19 ppm
same,CIMT [ppm] after storage at 21° C. 72 h,[14],11 ppm
same,CIMT [ppm] after storage at 21° C. 168 h,[14],8 ppm
same,CIMT [ppm] after storage at 21° C. 336 h,[14],1 ppm
same,CIMT [ppm] after storage at 21° C. 4 [h],[15],38 ppm
same,CIMT [ppm] after storage at 21° C. 24 h,[15],29 ppm
same,CIMT [ppm] after storage at 21° C. 72 h,[15],21 ppm
same,CIMT [ppm] after storage at 21° C. 168 h,[15],15 ppm
same,CIMT [ppm] after storage at 21° C. 336 h,[15],8 ppm
same,CIMT [ppm] after storage at 21° C. 4 [h],[16],47 ppm
same,CIMT [ppm] after storage at 21° C. 24 h,[16],42 ppm
same,CIMT [ppm] after storage at 21° C. 72 h,[16],34 ppm
same,CIMT [ppm] after storage at 21° C. 168 h,[16],24 ppm
same,CIMT [ppm] after storage at 21° C. 336 h,[16],14 ppm
same,CIMT [ppm] after storage at 21° C. 4 [h],[17],49 ppm
same,CIMT [ppm] after storage at 21° C. 24 h,[17],49 ppm
same,CIMT [ppm] after storage at 21° C. 72 h,[17],40 ppm
same,CIMT [ppm] after storage at 21° C. 168 h,[17],30 ppm
same,CIMT [ppm] after storage at 21° C. 336 h,[17],23 ppm
same,CIMT [ppm] after storage at 21° C. 4 [h],[18],50 ppm
same,CIMT [ppm] after storage at 21° C. 24 h,[18],47 ppm
same,CIMT [ppm] after storage at 21° C. 72 h,[18],42 ppm
same,CIMT [ppm] after storage at 21° C. 168 h,[18],35 ppm
same,CIMT [ppm] after storage at 21° C. 336 h,[18],28 ppm
same,CIMT [ppm] after storage at 21° C. 4 [h],[19],51 ppm
same,CIMT [ppm] after storage at 21° C. 24 h,[19],50 ppm
same,CIMT [ppm] after storage at 21° C. 72 h,[19],45 ppm
same,CIMT [ppm] after storage at 21° C. 168 h,[19],38 ppm
same,CIMT [ppm] after storage at 21° C. 336 h,[19],31 ppm
same,CIMT [ppm] after storage at 21° C. 4 [h],[20],8 ppm
same,CIMT [ppm] after storage at 21° C. 24 h,[20],<LOQ (below the limit of determination (<0.5 ppm CMIT))
same,CIMT [ppm] after storage at 21° C. 72 h,[20],<LOQ (below the limit of determination (<0.5 ppm CMIT))
same,CIMT [ppm] after storage at 21° C. 168 h,[20],<LOQ (below the limit of determination (<0.5 ppm CMIT))
same,CIMT [ppm] after storage at 21° C. 336 h,[20],<LOQ (below the limit of determination (<0.5 ppm CMIT))
same,CIMT [ppm] after storage at 21° C. 4 [h],[21],37 ppm
same,CIMT [ppm] after storage at 21° C. 24 h,[21],25 ppm
same,CIMT [ppm] after storage at 21° C. 72 h,[21],13 ppm
same,CIMT [ppm] after storage at 21° C. 168 h,[21],6 ppm
same,CIMT [ppm] after storage at 21° C. 336 h,[21],<LOQ (below the limit of determination (<0.5 ppm CMIT))
same,CIMT [ppm] after storage at 21° C. 4 [h],[22],52 ppm
same,CIMT [ppm] after storage at 21° C. 24 h,[22],39 ppm
same,CIMT [ppm] after storage at 21° C. 72 h,[22],28 ppm
same,CIMT [ppm] after storage at 21° C. 168 h,[22],16 ppm
same,CIMT [ppm] after storage at 21° C. 336 h,[22],5 ppm
same,CIMT [ppm] after storage at 21° C. 4 [h],[23],67 ppm
same,CIMT [ppm] after storage at 21° C. 24 h,[23],56 ppm
same,CIMT [ppm] after storage at 21° C. 72 h,[23],37 ppm
same,CIMT [ppm] after storage at 21° C. 168 h,[23],22 ppm
same,CIMT [ppm] after storage at 21° C. 336 h,[23],14 ppm
same,CIMT [ppm] after storage at 21° C. 4 [h],[24],83 ppm
same,CIMT [ppm] after storage at 21° C. 24 h,[24],76 ppm
same,CIMT [ppm] after storage at 21° C. 72 h,[24],64 ppm
same,CIMT [ppm] after storage at 21° C. 168 h,[24],47 ppm
same,CIMT [ppm] after storage at 21° C. 336 h,[24],28 ppm
same,CIMT [ppm] after storage at 21° C. 4 [h],[25],93 ppm
same,CIMT [ppm] after storage at 21° C. 24 h,[25],89 ppm
same,CIMT [ppm] after storage at 21° C. 72 h,[25],77 ppm
same,CIMT [ppm] after storage at 21° C. 168 h,[25],63 ppm
same,CIMT [ppm] after storage at 21° C. 336 h,[25],44 ppm
same,CIMT [ppm] after storage at 21° C. 4 [h],[26],102 ppm
same,CIMT [ppm] after storage at 21° C. 24 h,[26],96 ppm
same,CIMT [ppm] after storage at 21° C. 72 h,[26],88 ppm
same,CIMT [ppm] after storage at 21° C. 168 h,[26],75 ppm
same,CIMT [ppm] after storage at 21° C. 336 h,[26],61 ppm
same,CIMT [ppm] after storage at 21° C. 4 [h],[27],100 ppm
same,CIMT [ppm] after storage at 21° C. 24 h,[27],101 ppm
same,CIMT [ppm] after storage at 21° C. 72 h,[27],94 ppm
same,CIMT [ppm] after storage at 21° C. 168 h,[27],84 ppm
same,CIMT [ppm] after storage at 21° C. 336 h,[27],72 ppm
